Data reported in patent publication US20230017045A1, “PYRIDINE AND PYRIMIDINE CARBOXYLATE HERBICIDES AND METHODS OF USE THEREOF” (Dow AgroSciences LLC, priority 2017, published 2023).

These molecules were tested on test plant species (assay: Post-emergent herbicidal activity test (greenhouse, foliar spray, visual growth reduction)). Settings: post-emergence, 336 h, ALOMY: blackgrass (Alopecurus myosuroides), 140 g ai/ha, 14 days after application, read-out: Visual Growth Reduction (%) 14 Days After Application, ALOMY.
Format: in vivo
Summary of the method: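 Greenhouse plants at first–second true leaf stage sprayed overhead at 187 L/ha with compound in acetone/water/isopropanol/DMSO/crop oil/X-77 carrier; controls received solvent blank. Injury rated visually after 14 d on a 0–100% scale versus untreated and control plants, converted to growth reduction.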
Work on `COC(=O)c1nc(-c2c(Cl)cc(C(F)(F)F)cc2[S+](C)[O-])ccc1Cl` (stereo not drawn) [F120, methyl 3-chloro-6-(2-chloro-6-(methylsulfinyl)-4-(trifluoromethyl)phenyl)picolinate] yielded a pest or weed control at 140 g/ha of 0 to 29%.

Same assay, conditions: post-emergence, 336 h, AMARE: redroot pigweed (Amaranthus retroflexus), 140 g ai/ha, 14 days after application, read-out: Visual Growth Reduction (%) 14 Days After Application, AMARE
`COC(=O)c1nc(-c2c(Cl)cc(C(F)(F)F)cc2[S+](C)[O-])ccc1Cl` (stereo not drawn) [F120, methyl 3-chloro-6-(2-chloro-6-(methylsulfinyl)-4-(trifluoromethyl)phenyl)picolinate] gave a pest or weed control at 140 g/ha of 45 to 59%.

Same assay, conditions: post-emergence, 336 h, AVEFA: wild oat (Avena fatua), 140 g ai/ha, 14 days after application, read-out: Visual Growth Reduction (%) 14 Days After Application, AVEFA
`COC(=O)c1nc(-c2c(Cl)cc(C(F)(F)F)cc2[S+](C)[O-])ccc1Cl` (stereo not drawn) [F120, methyl 3-chloro-6-(2-chloro-6-(methylsulfinyl)-4-(trifluoromethyl)phenyl)picolinate] was tested, and the pest or weed control at 140 g/ha was 0 to 29%.

Same assay, conditions: post-emergence, 336 h, CHEAL: lambsquarters (Chenopodium album), 140 g ai/ha, 14 days after application, read-out: Visual Growth Reduction (%) 14 Days After Application, CHEAL
With `COC(=O)c1nc(-c2c(Cl)cc(C(F)(F)F)cc2[S+](C)[O-])ccc1Cl` (stereo not drawn) [F120, methyl 3-chloro-6-(2-chloro-6-(methylsulfinyl)-4-(trifluoromethyl)phenyl)picolinate] the pest or weed control at 140 g/ha was 30 to 44%.

Same assay, conditions: post-emergence, 336 h, CIRAR: canada thistle (Cirsium arvense), 140 g ai/ha, 14 days after application, read-out: Visual Growth Reduction (%) 14 Days After Application, CIRAR
Molecule `COC(=O)c1nc(-c2c(Cl)cc(C(F)(F)F)cc2[S+](C)[O-])ccc1Cl` (stereo not drawn) [F120, methyl 3-chloro-6-(2-chloro-6-(methylsulfinyl)-4-(trifluoromethyl)phenyl)picolinate] has a pest or weed control at 140 g/ha of 60 to 74%.

Same assay, conditions: post-emergence, 336 h, CYPES: yellow nutsedge (Cyperus esculentus), 140 g ai/ha, 14 days after application, read-out: Visual Growth Reduction (%) 14 Days After Application, CYPES
With `COC(=O)c1nc(-c2c(Cl)cc(C(F)(F)F)cc2[S+](C)[O-])ccc1Cl` (stereo not drawn) [F120, methyl 3-chloro-6-(2-chloro-6-(methylsulfinyl)-4-(trifluoromethyl)phenyl)picolinate] the pest or weed control at 140 g/ha was 0 to 29%.

Same assay, conditions: post-emergence, 336 h, DIGSA: crabgrass (Digitaria sanguinalis), 140 g ai/ha, 14 days after application, read-out: Visual Growth Reduction (%) 14 Days After Application, DIGSA
For `COC(=O)c1nc(-c2c(Cl)cc(C(F)(F)F)cc2[S+](C)[O-])ccc1Cl` (stereo not drawn) [F120, methyl 3-chloro-6-(2-chloro-6-(methylsulfinyl)-4-(trifluoromethyl)phenyl)picolinate], the pest or weed control at 140 g/ha was 0 to 29%.

Same assay, conditions: post-emergence, 336 h, ECHCG: barnyardgrass (Echinochloa crus-galli), 140 g ai/ha, 14 days after application, read-out: Visual Growth Reduction (%) 14 Days After Application, ECHCG
In the case of `COC(=O)c1nc(-c2ccc(Cl)c(F)c2C)ccc1Cl` [F298, Methyl 3-chloro-6-(4-chloro-3-fluoro-2-methylphenyl) picolinate], the pest or weed control at 140 g/ha is reported as 0 to 29%.
`COC(=O)c1nc(-c2c(Cl)cc(C(F)(F)F)cc2[S+](C)[O-])ccc1Cl` (stereo not drawn) [F120, methyl 3-chloro-6-(2-chloro-6-(methylsulfinyl)-4-(trifluoromethyl)phenyl)picolinate] was tested, and the pest or weed control at 140 g/ha was 0 to 29%.

Same assay, conditions: post-emergence, 336 h, IPOHE: ivy-leaf morning glory (Ipomoea hederacea), 140 g ai/ha, 14 days after application, read-out: Visual Growth Reduction (%) 14 Days After Application, IPOHE
`COC(=O)c1nc(-c2ccc(Cl)c(F)c2C)ccc1Cl` [F298, Methyl 3-chloro-6-(4-chloro-3-fluoro-2-methylphenyl) picolinate] was tested, and the pest or weed control at 140 g/ha was 95 to 100%.
`COC(=O)c1nc(-c2c(Cl)cc(C(F)(F)F)cc2[S+](C)[O-])ccc1Cl` (stereo not drawn) [F120, methyl 3-chloro-6-(2-chloro-6-(methylsulfinyl)-4-(trifluoromethyl)phenyl)picolinate] gave a pest or weed control at 140 g/ha of 30 to 44%.

Same assay, conditions: post-emergence, 336 h, KCHSC: kochia (Bassia scoparia), 140 g ai/ha, 14 days after application, read-out: Visual Growth Reduction (%) 14 Days After Application, KCHSC
Molecule `COC(=O)c1nc(-c2ccc(Cl)c(F)c2C)ccc1Cl` [F298, Methyl 3-chloro-6-(4-chloro-3-fluoro-2-methylphenyl) picolinate] has a pest or weed control at 140 g/ha of 0 to 29%.
In the case of `COC(=O)c1nc(-c2c(Cl)cc(C(F)(F)F)cc2[S+](C)[O-])ccc1Cl` (stereo not drawn) [F120, methyl 3-chloro-6-(2-chloro-6-(methylsulfinyl)-4-(trifluoromethyl)phenyl)picolinate], the pest or weed control at 140 g/ha is reported as 60 to 74%.

Same assay, conditions: post-emergence, 336 h, ORYSA: rice (Oryza sativa), 140 g ai/ha, 14 days after application, read-out: Visual Growth Reduction (%) 14 Days After Application, ORYSA
`COC(=O)c1nc(-c2ccc(Cl)c(F)c2C)ccc1Cl` [F298, Methyl 3-chloro-6-(4-chloro-3-fluoro-2-methylphenyl) picolinate] gave a pest or weed control at 140 g/ha of 0 to 29%.
Work on `COC(=O)c1nc(-c2c(Cl)cc(C(F)(F)F)cc2[S+](C)[O-])ccc1Cl` (stereo not drawn) [F120, methyl 3-chloro-6-(2-chloro-6-(methylsulfinyl)-4-(trifluoromethyl)phenyl)picolinate] yielded a pest or weed control at 140 g/ha of 0 to 29%.

Same assay, conditions: post-emergence, 336 h, SETFA: giant foxtail (Setaria faberi), 140 g ai/ha, 14 days after application, read-out: Visual Growth Reduction (%) 14 Days After Application, SETFA
`COC(=O)c1nc(-c2ccc(Cl)c(F)c2C)ccc1Cl` [F298, Methyl 3-chloro-6-(4-chloro-3-fluoro-2-methylphenyl) picolinate] was tested, and the pest or weed control at 140 g/ha was 75 to 84%.
In the case of `COC(=O)c1nc(-c2c(Cl)cc(C(F)(F)F)cc2[S+](C)[O-])ccc1Cl` (stereo not drawn) [F120, methyl 3-chloro-6-(2-chloro-6-(methylsulfinyl)-4-(trifluoromethyl)phenyl)picolinate], the pest or weed control at 140 g/ha is reported as 0 to 29%.

Same assay, conditions: post-emergence, 336 h, SORVU: grain sorghum (Sorghum vulgare), 140 g ai/ha, 14 days after application, read-out: Visual Growth Reduction (%) 14 Days After Application, SORVU
Work on `COC(=O)c1nc(-c2ccc(Cl)c(F)c2C)ccc1Cl` [F298, Methyl 3-chloro-6-(4-chloro-3-fluoro-2-methylphenyl) picolinate] yielded a pest or weed control at 140 g/ha of 75 to 84%.
`COC(=O)c1nc(-c2c(Cl)cc(C(F)(F)F)cc2[S+](C)[O-])ccc1Cl` (stereo not drawn) [F120, methyl 3-chloro-6-(2-chloro-6-(methylsulfinyl)-4-(trifluoromethyl)phenyl)picolinate] gave a pest or weed control at 140 g/ha of 0 to 29%.

Same assay, conditions: post-emergence, 336 h, STEME: common chickweed (Stellaria media), 140 g ai/ha, 14 days after application, read-out: Visual Growth Reduction (%) 14 Days After Application, STEME
Molecule `COC(=O)c1nc(-c2ccc(Cl)c(F)c2C)ccc1Cl` [F298, Methyl 3-chloro-6-(4-chloro-3-fluoro-2-methylphenyl) picolinate] has a pest or weed control at 140 g/ha of 0 to 29%.
For `COC(=O)c1nc(-c2c(Cl)cc(C(F)(F)F)cc2[S+](C)[O-])ccc1Cl` (stereo not drawn) [F120, methyl 3-chloro-6-(2-chloro-6-(methylsulfinyl)-4-(trifluoromethyl)phenyl)picolinate], the pest or weed control at 140 g/ha was 0 to 29%.

Same assay, conditions: post-emergence, 336 h, TRZAS: wheat, spring (Triticum aestivum), 140 g ai/ha, 14 days after application, read-out: Visual Growth Reduction (%) 14 Days After Application, TRZAS
Molecule `COC(=O)c1nc(-c2ccc(Cl)c(F)c2C)ccc1Cl` [F298, Methyl 3-chloro-6-(4-chloro-3-fluoro-2-methylphenyl) picolinate] has a pest or weed control at 140 g/ha of 0 to 29%.
`COC(=O)c1nc(-c2c(Cl)cc(C(F)(F)F)cc2[S+](C)[O-])ccc1Cl` (stereo not drawn) [F120, methyl 3-chloro-6-(2-chloro-6-(methylsulfinyl)-4-(trifluoromethyl)phenyl)picolinate] gave a pest or weed control at 140 g/ha of 0 to 29%.

Same assay, conditions: post-emergence, 336 h, blackgrass (Alopecurus myosuroides), 14 Days After Application, 140 g ai/ha, read-out: Visual Growth Reduction (%) ALOMY
Work on `COC(=O)c1nc(-c2ccc(Cl)c(F)c2C)ccc1Cl` [F298, Methyl 3-chloro-6-(4-chloro-3-fluoro-2-methylphenyl) picolinate] yielded a pest or weed control at 140 g/ha of 0 to 29%.

Same assay, conditions: post-emergence, 336 h, canada thistle (Cirsium arvense), 14 Days After Application, 140 g ai/ha, read-out: Visual Growth Reduction (%) CIRAR
For `COC(=O)c1nc(-c2ccc(Cl)c(F)c2C)ccc1Cl` [F298, Methyl 3-chloro-6-(4-chloro-3-fluoro-2-methylphenyl) picolinate], the pest or weed control at 140 g/ha was 60 to 74%.

Same assay, conditions: post-emergence, 336 h, crabgrass (Digitaria sanguinalis), 14 Days After Application, 140 g ai/ha, read-out: Visual Growth Reduction (%) DIGSA
Work on `COC(=O)c1nc(-c2ccc(Cl)c(F)c2C)ccc1Cl` [F298, Methyl 3-chloro-6-(4-chloro-3-fluoro-2-methylphenyl) picolinate] yielded a pest or weed control at 140 g/ha of 0 to 29%.

Same assay, conditions: post-emergence, 336 h, lambsquarters (Chenopodium album), 14 Days After Application, 140 g ai/ha, read-out: Visual Growth Reduction (%) CHEAL
`COC(=O)c1nc(-c2ccc(Cl)c(F)c2C)ccc1Cl` [F298, Methyl 3-chloro-6-(4-chloro-3-fluoro-2-methylphenyl) picolinate] gave a pest or weed control at 140 g/ha of 75 to 84%.

Same assay, conditions: post-emergence, 336 h, redroot pigweed (Amaranthus retroflexus), 14 Days After Application, 140 g ai/ha, read-out: Visual Growth Reduction (%) AMARE
`COC(=O)c1nc(-c2ccc(Cl)c(F)c2C)ccc1Cl` [F298, Methyl 3-chloro-6-(4-chloro-3-fluoro-2-methylphenyl) picolinate] gave a pest or weed control at 140 g/ha of 30 to 44%.

Same assay, conditions: post-emergence, 336 h, wild oat (Avena fatua), 14 Days After Application, 140 g ai/ha, read-out: Visual Growth Reduction (%) AVEFA
With `COC(=O)c1nc(-c2ccc(Cl)c(F)c2C)ccc1Cl` [F298, Methyl 3-chloro-6-(4-chloro-3-fluoro-2-methylphenyl) picolinate] the pest or weed control at 140 g/ha was 0 to 29%.

Same assay, conditions: post-emergence, 336 h, yellow nutsedge (Cyperus esculentus), 14 Days After Application, 140 g ai/ha, read-out: Visual Growth Reduction (%) CYPES
For `COC(=O)c1nc(-c2ccc(Cl)c(F)c2C)ccc1Cl` [F298, Methyl 3-chloro-6-(4-chloro-3-fluoro-2-methylphenyl) picolinate], the pest or weed control at 140 g/ha was 0 to 29%.
